Values quoted from earlier work, collected in patent US20110217324A1, “INHIBITORS OF ANTIGEN PRESENTATION BY MHC CLASS II MOLECULES AND METHODS OF USE THEREOF” (priority 2007, published 2011).

Tests used:
DRB1*1501 = DRB1*1501 (Homo sapiens, UniProt P01903+P01911); conditions: DR2 haplotype; cited from earlier work
DRB5*0101 = DRB5*0101 (Homo sapiens, UniProt P01903+Q30154); conditions: DR2 haplotype; cited from earlier work
[1] = system: animal models of autoimmune disease; conditions: in vivo; cited from earlier work
T cell proliferation = conditions: cited from earlier work
DR molecules = conditions: cited from earlier work

Substance: MBP (84-102): immunodominant myelin basic protein (84-102) peptide (DPGSRPHLIRLFSRDAPGR; Myelin basic protein; UniProt P02686 84-102, looked up, fragment)
- binding affinity to DRB1*1501 molecules (DRB1*1501): bind with high affinity
- binding affinity to DRB5*0101 molecules (DRB5*0101): bind with high affinity

Substance: a(Cha)AAAKTAAAAa-NH2
- activity in animal models of autoimmune disease [1]: did not show activity
- suppression of T cell proliferation in response to protein antigens (T cell proliferation): did not supress T cell proliferation
- binding to DR molecules (DR molecules): binds DR molecules
